We go through one substance from patent US20060281899A1, “Mutants of biotin binding protein” (priority 2002, published 2006).

For data set [1] the following is noted: 2-iminobiotin cuvette, cited from earlier work.
For data set [2] the following is noted: 2-iminobiotin surface, values from Hytönen 2003, cited from earlier work.
Data set [3] is described as follows: Microparticle analysis, BF523-biotin binding of protein-coated particles before and after 95° C. The following applies: 30 minutes at 95° C., BF523-biotin added after treatment (iv). Type of data set: physicochemical. The protocol: Before the analysis, 3.22 μm microparticles with COOH-group/0.852 nm2 (Bangs laboratories, Fishers, Ind., USA) were covalently coated with biotin-binding proteins. Microparticles (1*108 pcs) were washed twice with H20 by sequential centrifuging (5000 g; 3 min) and aspiration, and resuspended in 200 μl PB buffer (50 mM NaH2PO4-HCl, pH 3.0). A solution of biotin binding protein (50 μl, 1 mg/ml or 3 mg/ml, 50 mM Na-acetate pH 4.0) was added while vortexing. The suspension was incubated for 1 h (500 rpm; 23° C.). Particles were washed with PB and with MES buffer (50 mM, pH 5.5) and suspended in MES buffer (200 μl). […] After the last wash particles were suspended in 100 μl volume and concentration of particles was determined with Multisizer 3 Coulter Counter (Beckman Coulter, Fullerton, Calif., USA). […]
Microparticles (5*106 pcs) were suspended in 900 μl of assay buffer and aliquoted in […] PCR-tubes (i-v; 180 μl/aliquot). […] The samples were measured with ArcDia TPX PlateReader (ArcDia Ltd.) (Soini, E., Meltola, N. J., Soini, A. E., Soukka, J., Soini, J. T. & Hanninen, P. E. (2000) Biochem. Soc. Trans. 28, 70-74). […]
The fluorescence emission efficiencies of the BF523-biotin conjugate (200 nM) was determined before and after the incubation (30 min) at 95° C. […]

Like-named read-outs stand apart in the source and are kept apart here.

For the substance “wt Avidin: Wild-type chicken avidin (SEQ ID NO 1), purified from chicken egg-white [reference compound]”, the Kd – broadly, the concentration at which binding is half-saturated – in data set [1] (avidin values from Laitinen 2002 / Marttila 2000, read-out: Kd calculated from the equilibrium response data) is 17 nM; in data set [1] (avidin values from literature, read-out: Kd calculated directly from the binding curves), 20 nM; in data set [2] (read-out: Kd detected directly from the binding curves), 34 nM; in data set [2] (read-out: Kd detected from the equilibrium response data), 22 nM. Moreover, the kass entry is given as “(1.6 ± 0.7) × 10^4 M^−1 s^−1” in data set [1] (avidin values from literature) and “(5.5 ± 0.5) × 10^4 M^−1s^−1” in data set [2]. Further, the kdiss entry in data set [2] is listed as “(1.9 ± 1.4) × 10^−3 s^−1”. The “original signal after heat treatment of coated particles” value in data set [3] was 9%.
